Key:
Format in all cases: biochemical
Factor Xa = Factor Xa (Homo sapiens, UniProt P00742); assay: Factor Xa amidolytic assay (chromogenic substrate S-2765); details: room temperature, pH 7.5, 5 min preincubation; read-out: Inhibitory Activity (IC50) Factor Xa Xa
Procedure: (§1) The compounds of the present invention are dissolved in buffer to give solutions containing concentrations such that assay concentrations range from about 0 to about 100 μM. In the assays for thrombin, prothrombinase and factor Xa, a synthetic chromogenic substrate is added to a solution containing test compound and the enzyme of interest and the residual catalytic activity of that enzyme is determined spectrophotometrically. The IC50 of a compound is determined from the substrate turnover. The IC50 is the concentration of test compound giving about 50% inhibition of the substrate turnover.
(§2) The factor Xa and thrombin assays are performed at room temperature, in 0.02 M Tris.HCl buffer, pH 7.5, containing 0.15 M NaCl. The rates of hydrolysis of the para-nitroanilide substrate S-2765 (Chromogenix) for factor Xa, and the substrate Chromozym TH (Boehringer Mannheim) for thrombin following preincubation of the enzyme with inhibitor for 5 minutes at room temperature, and are determined using the Softmax 96-well plate reader (Molecular Devices), monitored at 405 nm to measure the time dependent appearance of p-nitroaniline.

Thrombin = Thrombin (Homo sapiens, UniProt P00734); assay: Thrombin amidolytic assay (chromogenic substrate Chromozym TH); details: room temperature, pH 7.5, 5 min preincubation; read-out: Inhibitory Activity (IC50) Thrombin IIa
Procedure: as §1, §2

Prothrombinase = Prothrombinase (Homo sapiens, UniProt P00742); assay: Prothrombinase inhibition assay, plasma free system; details: factor Xa 0.5 nM, factor Va 2 nM, PS:PC, 5 min preincubation; read-out: Inhibitory Activity (IC50) Prothrombinase IIase
Procedure: as §1
The prothrombinase inhibition assay is performed in a plasma free system with modifications to the method described by Sinha, U. et al., Thromb. Res., 75, 427-436 (1994). Specifically, the activity of the prothrombinase complex is determined by measuring the time course of thrombin generation using the p-nitroanilide substrate Chromozym TH. The assay consists of preincubation (5 minutes) of selected compounds to be tested as inhibitors with the complex formed from factor Xa (0.5 nM), factor Va (2 nM), phosphatidyl serine:phosphatidyl choline (25:75, 20 μM) in 20 mM Tris.HCl buffer, pH 7.5, containing 0.15 M NaCl, 5 mM CaCl2 and 0.1% bovine serum albumin. […] The rate of substrate cleavage is monitored at 405 nm for two minutes. […]

Chain of Prothrombinase (P00742 235-488 limits assumed): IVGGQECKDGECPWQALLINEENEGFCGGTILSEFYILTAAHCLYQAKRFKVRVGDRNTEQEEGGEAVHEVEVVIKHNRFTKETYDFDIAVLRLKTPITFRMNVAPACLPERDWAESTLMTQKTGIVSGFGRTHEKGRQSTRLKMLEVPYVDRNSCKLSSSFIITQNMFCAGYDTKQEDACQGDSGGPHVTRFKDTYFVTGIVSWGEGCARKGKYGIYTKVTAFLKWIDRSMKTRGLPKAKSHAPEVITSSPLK
Chain of Prothrombinase (P00742 41-179 limits assumed): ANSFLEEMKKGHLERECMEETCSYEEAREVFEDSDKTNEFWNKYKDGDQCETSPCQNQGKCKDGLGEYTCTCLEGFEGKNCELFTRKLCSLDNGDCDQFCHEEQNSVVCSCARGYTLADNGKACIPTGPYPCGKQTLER
Chain of Prothrombinase (P12259 29-737 partner limits assumed): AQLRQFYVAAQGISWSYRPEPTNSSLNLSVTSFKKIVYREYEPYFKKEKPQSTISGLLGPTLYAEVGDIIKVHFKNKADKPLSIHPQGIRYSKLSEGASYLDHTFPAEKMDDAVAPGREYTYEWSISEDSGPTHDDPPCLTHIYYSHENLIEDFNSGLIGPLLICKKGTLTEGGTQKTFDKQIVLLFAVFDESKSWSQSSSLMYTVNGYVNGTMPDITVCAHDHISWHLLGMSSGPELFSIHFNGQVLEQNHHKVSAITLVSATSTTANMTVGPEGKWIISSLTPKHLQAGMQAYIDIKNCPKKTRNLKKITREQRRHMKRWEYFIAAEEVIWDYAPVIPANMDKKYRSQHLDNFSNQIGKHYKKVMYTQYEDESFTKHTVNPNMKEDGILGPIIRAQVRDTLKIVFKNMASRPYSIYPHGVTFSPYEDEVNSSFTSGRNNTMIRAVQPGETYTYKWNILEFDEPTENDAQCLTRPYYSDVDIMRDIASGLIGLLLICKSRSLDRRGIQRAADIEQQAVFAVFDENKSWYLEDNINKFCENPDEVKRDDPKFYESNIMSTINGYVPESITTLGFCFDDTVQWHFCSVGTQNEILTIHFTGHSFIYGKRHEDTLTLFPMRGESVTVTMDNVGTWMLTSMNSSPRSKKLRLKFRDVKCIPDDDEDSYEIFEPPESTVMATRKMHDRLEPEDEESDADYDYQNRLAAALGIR
Chain of Prothrombinase (P12259 1574-2224 partner limits assumed): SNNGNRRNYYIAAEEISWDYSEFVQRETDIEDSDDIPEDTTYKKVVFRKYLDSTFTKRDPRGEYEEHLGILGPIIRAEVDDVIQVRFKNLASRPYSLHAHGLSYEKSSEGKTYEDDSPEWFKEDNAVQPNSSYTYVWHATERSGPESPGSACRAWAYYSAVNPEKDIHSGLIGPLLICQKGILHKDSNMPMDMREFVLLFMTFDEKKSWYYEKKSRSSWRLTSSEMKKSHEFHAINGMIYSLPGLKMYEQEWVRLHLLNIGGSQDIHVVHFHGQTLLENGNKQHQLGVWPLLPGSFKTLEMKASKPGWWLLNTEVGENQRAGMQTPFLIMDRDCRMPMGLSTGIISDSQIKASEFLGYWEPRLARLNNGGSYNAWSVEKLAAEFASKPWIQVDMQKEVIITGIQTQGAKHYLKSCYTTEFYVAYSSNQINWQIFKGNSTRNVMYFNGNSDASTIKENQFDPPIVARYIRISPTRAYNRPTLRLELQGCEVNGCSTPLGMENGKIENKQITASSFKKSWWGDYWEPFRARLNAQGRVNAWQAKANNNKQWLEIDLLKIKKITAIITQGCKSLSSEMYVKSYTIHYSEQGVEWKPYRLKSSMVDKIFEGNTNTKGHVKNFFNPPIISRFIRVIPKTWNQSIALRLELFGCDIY
Chain of Factor Xa (P00742 235-488 limits assumed): as the sequence (P00742 235-488 limits assumed) above
Chain of Factor Xa (P00742 41-179 limits assumed): as the sequence (P00742 41-179 limits assumed) above

| SMILES | IC50 (Factor Xa) | IC50 (Thrombin) | IC50 (Prothrombinase) |
| --- | --- | --- | --- |
| CC(=N)N1CCC(Oc2ccc(C(=O)NCc3cccc(C(=N)N)c3)cc2)CC1 | 0.059 µM | 139 µM | 20 µM |
| COC(=O)C(Cc1cccc(C(=N)N)c1)NC(=O)c1ccc(OC2CCN(C(C)=N)CC2)cc1 (stereo not drawn) | 0.201 µM | 270 µM | 4 µM |
